The text below walks through data of ChEMBL document CHEMBL1128940, “Dual inhibition of angiotensin-converting enzyme and neutral endopeptidase by tricyclic benzazepinone thiols” (Bioorg Med Chem Lett, 1996).

Molecules are shown by their SMILES. pIC50: −log10 of the molar value.

The target of assay [1] is Angiotensin-converting enzyme (Homo sapiens, UniProt P12821+Q9BYF1). Put plainly: Inhibition of Angiotensin I converting enzyme. Format: protein assay.
Another assay concerns the target Neprilysin (Homo sapiens, UniProt P08473). Kind of assay: Inhibition of neutral endopeptidase.

Sequence of Neprilysin (P08473 whole entry): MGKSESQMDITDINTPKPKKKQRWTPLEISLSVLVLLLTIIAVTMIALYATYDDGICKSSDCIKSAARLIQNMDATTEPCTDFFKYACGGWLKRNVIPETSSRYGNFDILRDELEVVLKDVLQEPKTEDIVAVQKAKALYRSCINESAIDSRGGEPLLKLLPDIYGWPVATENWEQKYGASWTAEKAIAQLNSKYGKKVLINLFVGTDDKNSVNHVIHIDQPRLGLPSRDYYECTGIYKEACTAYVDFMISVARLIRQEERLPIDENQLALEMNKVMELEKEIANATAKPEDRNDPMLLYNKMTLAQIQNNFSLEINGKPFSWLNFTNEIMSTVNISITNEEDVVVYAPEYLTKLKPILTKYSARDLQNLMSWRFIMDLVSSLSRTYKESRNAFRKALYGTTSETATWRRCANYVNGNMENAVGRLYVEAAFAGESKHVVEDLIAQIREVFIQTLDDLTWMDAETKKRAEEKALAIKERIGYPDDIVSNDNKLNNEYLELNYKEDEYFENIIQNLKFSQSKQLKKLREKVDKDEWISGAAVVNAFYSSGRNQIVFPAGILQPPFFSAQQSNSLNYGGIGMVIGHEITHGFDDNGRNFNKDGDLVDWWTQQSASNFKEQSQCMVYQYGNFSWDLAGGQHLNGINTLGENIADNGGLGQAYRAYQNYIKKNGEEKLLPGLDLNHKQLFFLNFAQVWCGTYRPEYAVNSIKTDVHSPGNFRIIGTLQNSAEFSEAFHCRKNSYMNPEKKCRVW

In general, IC50 refers to the concentration that inhibits the measured activity by half. A low value points to greater potency in that assay. Usually pIC50 stands for −log10 of the IC50, conventionally taken in molar units. High values mean a small IC50, low ones a large IC50. Regarding `C[C@H](S)C(=O)NC1CCc2cccc3c2N(C1=O)[C@H](C(=O)O)C3` (some centres not stated), in assay [1], the IC50 came out at 165 nM. This compound also had a negative logarithm of the IC50 (pIC50) at Neprilysin of under 6.00. On the same counts, the results for `O=C(N[C@@H]1CCc2cccc3c2N(C1=O)[C@H](C(=O)O)C3)[C@@H](S)Cc1ccccc1` are 62 nM and under 6.00. In assay [1], `O=C(N[C@H]1CCc2cccc3c2N(C1=O)[C@H](C(=O)O)C3)[C@@H](S)Cc1ccccc1` had an IC50 of 40 nM. On Neprilysin, this compound gave a pIC50 of 7.32.

Compound `O=C(O)[C@@H]1Cc2cccc3c2N1C(=O)C(NC(=O)C1(S)Cc2ccccc2C1)CC3` (some centres not stated) registered an IC50 in assay [1] of over 1000 nM. At Neprilysin, this compound had a pIC50 of 6.30. On the same counts, the results for `O=C(NC1CCc2cccc3c2N(C1=O)[C@H](C(=O)O)C3)[C@H](S)Cc1ccccc1` (some centres not stated) are 283 nM and 7.08. As to `O=C(NC1CCc2cccc3c2N(C1=O)[C@H](C(=O)O)C3)[C@@H](S)Cc1ccc(-c2ccccc2)cc1` (some centres not stated), the IC50 in assay [1] is reported as 89 nM. In addition, on Neprilysin, the pIC50 is under 6.00. In the same order, the values of `CC[C@@H](C)[C@H](S)C(=O)NC1CCc2cccc3c2N(C1=O)[C@H](C(=O)O)C3` (some centres not stated) are 41 nM and under 6.00. As to `O=C(NC1CCc2cccc3c2N(C1=O)[C@H](C(=O)O)C3)[C@@H](S)C1CCCCC1` (some centres not stated), the half-maximal inhibitory concentration (IC50) in assay [1] was under 100 nM. Besides, the negative-log IC50 (pIC50) at Neprilysin is under 6.00. In the same order, the values of `CC(C)(S)C(=O)NC1CCc2cccc3c2N(C1=O)[C@H](C(=O)O)C3` (some centres not stated) are over 1000 nM and under 6.00.

Turning to `CC(C)[C@H](S)C(=O)NC1CCc2cccc3c2N(C1=O)[C@H](C(=O)O)C3` (some centres not stated), the half-inhibitory concentration (IC50) in assay [1] came out at 30 nM. The negative logarithm of the IC50 (pIC50) on Neprilysin was 6.03. With `O=C(CS)NC1CCc2cccc3c2N(C1=O)[C@H](C(=O)O)C3` (some centres not stated), at Neprilysin, the pIC50 was under 6.00. In assay [1], `O=C(O)[C@@H]1Cc2cccc3c2N1C(=O)C(NC(=O)C1(S)CCCC1)CC3` (some centres not stated) displayed an IC50 of 253 nM. For the same compound, the pIC50 on Neprilysin was under 6.00. In turn, `O=C(N[C@H]1CCc2cccc3c2N(C1=O)[C@H](C(=O)O)C3)C(CS)Cc1ccc(-c2ccccc2)cc1` (stereo in doubt; 4m (S)) displayed an IC50 in assay [1] of 77 nM. The compound further gave a pIC50 against Neprilysin of 7.82. In the same order, the values of `O=C(N[C@H]1CCc2cccc3c2N(C1=O)[C@H](C(=O)O)C3)C(CS)Cc1ccc(-c2ccccc2)cc1` (stereo in doubt; 4n (S)) are 1120 nM and 7.92.
